Measurements as given in ChEMBL document CHEMBL1129097, “1-benzyl-3-thioaryl-2-carboxyindoles as potent non-peptide endothelin antagonists” (Bioorg Med Chem Lett, 1996).

Tests used:
[1] = biological target: T1, Endothelin receptor type B (Homo sapiens, UniProt P24530); experiment: Affinity for human endothelin B receptor expressed in CHO-K1 cells.; assay type: cell-based
T1 sequence (P24530 whole entry): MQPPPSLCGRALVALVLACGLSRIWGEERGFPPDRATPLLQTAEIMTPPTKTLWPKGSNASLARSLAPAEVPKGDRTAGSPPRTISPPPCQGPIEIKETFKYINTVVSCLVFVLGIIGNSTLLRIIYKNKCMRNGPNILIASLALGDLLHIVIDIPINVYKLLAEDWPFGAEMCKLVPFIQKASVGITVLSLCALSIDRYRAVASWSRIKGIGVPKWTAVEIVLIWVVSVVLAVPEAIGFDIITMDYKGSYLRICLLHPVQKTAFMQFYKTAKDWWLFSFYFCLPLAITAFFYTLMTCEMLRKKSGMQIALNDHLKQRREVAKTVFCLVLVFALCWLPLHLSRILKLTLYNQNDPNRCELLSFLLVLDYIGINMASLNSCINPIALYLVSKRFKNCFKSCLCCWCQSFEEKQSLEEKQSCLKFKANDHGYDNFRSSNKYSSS

[2] = biological target: T2, Endothelin-1 receptor (Homo sapiens, UniProt P25101); experiment: Affinity for human endothelin A receptor expressed in Ltk cells.; assay type: cell-based
T2 sequence (P25101 whole entry): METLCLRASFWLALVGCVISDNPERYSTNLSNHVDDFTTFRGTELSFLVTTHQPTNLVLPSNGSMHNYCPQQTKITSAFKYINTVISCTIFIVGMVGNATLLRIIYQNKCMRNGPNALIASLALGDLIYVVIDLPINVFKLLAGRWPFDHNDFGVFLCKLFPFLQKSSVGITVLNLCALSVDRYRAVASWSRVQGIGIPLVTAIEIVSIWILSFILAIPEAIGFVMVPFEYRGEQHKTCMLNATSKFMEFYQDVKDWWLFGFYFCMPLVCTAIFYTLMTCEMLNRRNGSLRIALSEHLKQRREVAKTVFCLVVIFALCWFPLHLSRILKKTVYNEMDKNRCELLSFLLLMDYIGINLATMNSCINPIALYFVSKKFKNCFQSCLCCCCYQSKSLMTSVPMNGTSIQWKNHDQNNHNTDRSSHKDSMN

[3] = biological target: T1, Endothelin receptor type B; experiment: Inhibition of sarafotoxin-6c stimulated vasoconstriction in rabbit pulmonary artery.; assay type: functional, Oryctolagus cuniculus; conditions: target entry is the homologue from another species; read-out: pA2 (converted)
[4] = biological target: T3, Endothelin receptor, ET-A/ET-B (Homo sapiens, UniProt P24530+P25101); experiment: In vitro inhibition of ET-1 stimulated vasoconstriction in rabbit femoral artery.; assay type: functional, tissue-based, Oryctolagus cuniculus; conditions: target entry is the homologue from another species
T3 sequence (P24530 whole entry): T1 sequence (P24530 whole entry)
T3 sequence (P25101 whole entry): T2 sequence (P25101 whole entry)

Structure (SMILES) | IC50 [1] [nM] | IC50 [2] [nM] | Kb [3] [nM] | pA2 [4]
CC(C)Oc1c(C(=O)O)sc2ccc(OCc3ccccc3)cc12 | > 100000 | 8800 | – | –
COc1cccc(Sc2c(C(=O)O)n(Cc3ccc4c(c3)OCO4)c3cc4c(cc23)OCO4)c1 | 760 | – | – | –
COc1cccc(Sc2c(C(=O)O)sc3ccccc23)c1 | > 25000 | – | – | –
COc1cccc(Sc2c(C(=O)O)n(Cc3ccccc3)c3cc(OC)c(OC)cc23)c1 | 870 | 160 | – | –
COc1cccc(Sc2c(C(=O)O)n(Cc3cc(OC)c4c(c3)OCO4)c3cc4c(cc23)OCO4)c1 | 29000 | – | – | –
O=C(O)c1c(Sc2ccc3c(c2)OCO3)c2cc3c(cc2n1Cc1ccc2c(c1)OCO2)OCO3 | 420 | 100 | – | –
COc1cccc(Sc2c(C(=O)O)n(Cc3ccc4c(c3)OCO4)c3ccccc23)c1 | – | 86 | – | –
COc1cccc(Sc2c(C(=O)O)n(Cc3ccc4c(c3)OCO4)c3cc(OCc4ccccc4)c(OC)cc23)c1 | 1600 | 20000 | – | –
COc1ccc(Sc2c(C(=O)O)n(Cc3ccc4c(c3)OCO4)c3cc4c(cc23)OCO4)cc1OC | – | 41 | 631 | 6.3
COc1cccc(Sc2c(C(=O)O)n(Cc3ccccc3)c3ccccc23)c1 | 15000 | – | – | –
COc1cc2c(Sc3ccc4c(c3)OCO4)c(C(=O)O)n(Cc3ccc4c(c3)OCO4)c2cc1OCc1ccccc1 | 490 | 620 | – | –
COc1cccc(Sc2c(C(=O)O)oc3ccccc23)c1 | > 25000 | – | – | –
COc1cc2c(Sc3cc(OC)c(OC)c(OC)c3)c(C(=O)O)n(Cc3ccc4c(c3)OCO4)c2cc1OCc1ccccc1 | > 2500 | > 2500 | – | –
